ChEMBL document CHEMBL1201862, “PubChem BioAssay data set” (2004)
Active and inactive are the calls of the source.

Legend:
Type in all cases: functional
[1] = molecular target: T1, Neuropeptides B/W receptor type 1 (Homo sapiens, UniProt P48145); experiment: GPR7 antagonist potency, late-stage follow-up, cell-based, fluorescence, dose response, set 5 (AID 588566)
T1 sequence (P48145 whole entry): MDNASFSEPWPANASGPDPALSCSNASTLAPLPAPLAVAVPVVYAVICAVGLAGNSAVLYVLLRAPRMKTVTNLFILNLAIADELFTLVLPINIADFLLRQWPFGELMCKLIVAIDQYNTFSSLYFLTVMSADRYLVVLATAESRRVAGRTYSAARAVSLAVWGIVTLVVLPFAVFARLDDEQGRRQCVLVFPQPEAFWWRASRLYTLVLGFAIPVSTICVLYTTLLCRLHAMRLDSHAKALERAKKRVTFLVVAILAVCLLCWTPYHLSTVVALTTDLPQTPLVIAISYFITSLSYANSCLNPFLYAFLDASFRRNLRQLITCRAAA

[2] = molecular target: Melanin-concentrating hormone receptor 1 (Homo sapiens, UniProt Q99705); experiment: Late-stage fluorescence-based counterscreen for antagonists of the G-protein coupled receptor 7 (GPR7): cell-based dose response assay to identify antagonists of the melanin-concentrating hormone receptor 1 (MCHR1) Set 5.
Chain of Melanin-concentrating hormone receptor 1 (Q99705 whole entry): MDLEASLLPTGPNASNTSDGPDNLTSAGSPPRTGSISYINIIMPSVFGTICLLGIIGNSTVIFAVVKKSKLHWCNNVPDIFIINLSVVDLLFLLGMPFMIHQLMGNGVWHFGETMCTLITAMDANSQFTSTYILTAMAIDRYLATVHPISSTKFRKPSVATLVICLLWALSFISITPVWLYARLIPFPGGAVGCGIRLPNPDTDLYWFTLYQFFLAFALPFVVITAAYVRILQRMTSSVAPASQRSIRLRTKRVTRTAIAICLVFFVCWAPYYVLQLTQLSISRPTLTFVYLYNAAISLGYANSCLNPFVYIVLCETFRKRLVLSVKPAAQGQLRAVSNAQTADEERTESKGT

[3] = molecular target: T2, Apoptotic protease-activating factor 1 (Homo sapiens, UniProt O14727); experiment: SAR analysis of small molecule Activators of Apaf-1 in a Fluorescent assay.; conditions: read-out: EC50_Mean;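 also: caspase-3 cleavage of fluorogenic Rh110 DEVD substrate downstream of apoptosome activation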
T2 sequence (O14727 whole entry): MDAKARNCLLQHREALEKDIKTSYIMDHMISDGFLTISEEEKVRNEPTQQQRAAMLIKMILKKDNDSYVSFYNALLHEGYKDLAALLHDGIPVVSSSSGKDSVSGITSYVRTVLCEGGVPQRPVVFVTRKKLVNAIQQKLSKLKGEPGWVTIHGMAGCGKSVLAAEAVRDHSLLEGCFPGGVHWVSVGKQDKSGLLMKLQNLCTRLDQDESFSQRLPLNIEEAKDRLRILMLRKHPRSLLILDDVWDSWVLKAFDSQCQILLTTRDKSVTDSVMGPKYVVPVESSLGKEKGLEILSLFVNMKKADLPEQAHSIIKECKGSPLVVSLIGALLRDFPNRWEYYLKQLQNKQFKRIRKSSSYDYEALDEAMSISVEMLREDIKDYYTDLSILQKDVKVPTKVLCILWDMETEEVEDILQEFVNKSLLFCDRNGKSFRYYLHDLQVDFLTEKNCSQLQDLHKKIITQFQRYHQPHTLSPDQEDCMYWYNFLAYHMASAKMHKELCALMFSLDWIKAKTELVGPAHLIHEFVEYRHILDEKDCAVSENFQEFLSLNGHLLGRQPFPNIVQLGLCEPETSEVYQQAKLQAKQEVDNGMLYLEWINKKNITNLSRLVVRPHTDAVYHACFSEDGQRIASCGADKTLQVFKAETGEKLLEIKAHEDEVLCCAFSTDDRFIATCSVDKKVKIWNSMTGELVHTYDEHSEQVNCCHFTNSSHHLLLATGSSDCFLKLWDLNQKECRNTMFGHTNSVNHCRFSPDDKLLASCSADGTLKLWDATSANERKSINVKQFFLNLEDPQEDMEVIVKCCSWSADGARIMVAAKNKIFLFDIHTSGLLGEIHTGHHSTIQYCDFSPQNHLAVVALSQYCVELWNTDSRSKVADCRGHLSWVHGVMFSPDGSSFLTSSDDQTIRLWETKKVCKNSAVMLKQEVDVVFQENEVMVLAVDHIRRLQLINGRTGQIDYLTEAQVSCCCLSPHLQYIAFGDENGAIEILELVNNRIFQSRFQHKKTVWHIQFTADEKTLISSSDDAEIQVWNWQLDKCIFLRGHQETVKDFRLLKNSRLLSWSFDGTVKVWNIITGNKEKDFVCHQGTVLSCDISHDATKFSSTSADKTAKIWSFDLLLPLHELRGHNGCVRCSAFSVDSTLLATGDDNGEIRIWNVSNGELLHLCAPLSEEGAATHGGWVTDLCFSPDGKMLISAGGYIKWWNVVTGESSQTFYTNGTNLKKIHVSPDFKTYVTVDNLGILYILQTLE

Interleukin-8 [4] = molecular target: T3, Interleukin-8 (Homo sapiens, UniProt P10145); experiment: Dose Response confirmation of uHTS small molecule hits for cystic fibrosis induced NFkb Inhibitors in a TNFa-induced IL8 counterscreen.; conditions: read-out: IC50_Mean
T3 sequence (P10145 whole entry): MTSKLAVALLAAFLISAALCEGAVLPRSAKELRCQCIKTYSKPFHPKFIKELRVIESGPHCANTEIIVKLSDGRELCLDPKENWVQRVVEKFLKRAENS

Interleukin-8 [5] = molecular target: T3, Interleukin-8; experiment: Dose Response confirmation of uHTS small molecule hits for cystic fibrosis induced NFkb Inhibitors in a PAF-induced IL8 counterscreen.; conditions: read-out: IC50_Mean
[6] = molecular target: T4, Low molecular weight phosphotyrosine protein phosphatase (Homo sapiens, UniProt P24666); conditions: read-out: IC50_Mean
T4 sequence (P24666 whole entry): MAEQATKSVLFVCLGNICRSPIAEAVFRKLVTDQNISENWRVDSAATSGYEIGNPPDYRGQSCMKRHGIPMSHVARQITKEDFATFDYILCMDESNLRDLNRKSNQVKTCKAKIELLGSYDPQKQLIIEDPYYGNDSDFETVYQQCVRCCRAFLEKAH

[7] = molecular target: T4, Low molecular weight phosphotyrosine protein phosphatase; conditions: read-out: IC50_Mean; remark: listed apart in the source
[8] = molecular target: T5, Tyrosine-protein phosphatase non-receptor type 22 (Homo sapiens, UniProt Q9Y2R2); experiment: LYP phosphatase inhibition for selectivity, dose response, selectivity assay for LMPTP inhibitor project, biochemical, fluorescence, LYP catalytic domain (AID 652006); conditions: read-out: IC50_Mean
T5 sequence (Q9Y2R2 whole entry): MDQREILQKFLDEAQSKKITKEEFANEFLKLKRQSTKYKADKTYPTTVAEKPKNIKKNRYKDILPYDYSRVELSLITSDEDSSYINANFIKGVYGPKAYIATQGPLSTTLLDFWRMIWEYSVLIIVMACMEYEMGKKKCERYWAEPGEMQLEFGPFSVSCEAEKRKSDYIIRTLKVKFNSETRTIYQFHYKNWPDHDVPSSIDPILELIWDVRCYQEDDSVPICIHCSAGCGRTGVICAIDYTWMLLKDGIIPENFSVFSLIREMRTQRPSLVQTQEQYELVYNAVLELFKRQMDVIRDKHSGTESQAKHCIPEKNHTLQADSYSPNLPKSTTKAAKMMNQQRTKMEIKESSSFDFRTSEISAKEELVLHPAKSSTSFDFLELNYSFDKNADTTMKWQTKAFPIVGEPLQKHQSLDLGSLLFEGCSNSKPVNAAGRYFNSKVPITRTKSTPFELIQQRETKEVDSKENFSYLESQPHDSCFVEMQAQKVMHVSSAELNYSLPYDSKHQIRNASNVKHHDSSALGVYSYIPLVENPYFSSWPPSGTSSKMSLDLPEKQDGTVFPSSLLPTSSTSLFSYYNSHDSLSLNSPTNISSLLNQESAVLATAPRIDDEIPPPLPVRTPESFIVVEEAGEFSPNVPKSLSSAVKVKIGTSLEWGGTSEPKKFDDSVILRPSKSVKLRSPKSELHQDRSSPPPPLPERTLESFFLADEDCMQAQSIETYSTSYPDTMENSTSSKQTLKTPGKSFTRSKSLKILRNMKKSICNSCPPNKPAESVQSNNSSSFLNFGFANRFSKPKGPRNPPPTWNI

COc1ccc(Oc2c(Cl)cnn(C(C)c3ccccc3C)c2=O)cc1 (stereo not given)
IC50 [1]: 8.01 µM (active) | IC50 [2]: 9.16 µM (active)

CC1(C)CC2CC(C)(CN2C(=O)C2CC(c3ccc(F)cc3)=NO2)C1 (stereo not given)
EC50 [3]: > 100 µM (inactive)

CCOC(=O)C(C(=O)OCC)c1c(Cl)cnn(Cc2cccc3ccccc23)c1=O
IC50 [1]: 3.77 µM (active) | IC50 [2]: 4.03 µM (active)

c1ccc2c(-c3ccc4nncn4c3)cncc2c1
IC50 (Interleukin-8 [4]): > 79 µM (inactive) | IC50 (Interleukin-8 [5]): 12.4 µM (inactive)

O=C(N/N=C\C=C\c1ccc(Br)cc1)c1ccc2c(c1)OCO2
IC50 [6]: 7.43 µM (active) | IC50 [7]: 11.6 µM (active) | IC50 [8]: 23.5 µM (inactive)
